Data as given in PubChem BioAssay AID330 (DTP/NCI, 2004).
Where “and” joins values, the source holds several entries; their conditions need not be identical. Equal values may be shown once. Inconclusive results and toxic doses are left out. The calls were made as follows: active = survival T/C of 150% or more; inactive = T/C below 125% in these data.

System: P388 leukemia ip, CD2F1 mice, survival T/C
Test: NCI In Vivo Anticancer Drug Screen. Data for tumor model P388 Leukemia (intraperitoneal) in CD2F1 (CDF1) mice
Conditions: endpoint: median survival time, higher = longer survival
Summary of the method: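 Mice carrying the transplanted tumor received test compound or vehicle. Survival was recorded in each group, and the value is the treated-group measurement divided by that of the vehicle-treated control group.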

[1] = dose: 25.0 mg/kg/injection, schedule: Q01DX009 (ip), vehicle: Klucel (hydroxypropylcellulose) (HPC)
[2] = dose: 50.0 mg/kg/injection, schedule: Q01DX009 (ip), vehicle: Klucel (hydroxypropylcellulose) (HPC)
[3] = dose: 100.0 mg/kg/injection, schedule: Q01DX009 (ip), vehicle: Klucel (hydroxypropylcellulose) (HPC)
[4] = dose: 25.0 mg/kg/injection, schedule: Q01DX005 (ip), vehicle: Klucel (hydroxypropylcellulose) (HPC)
[5] = dose: 50.0 mg/kg/injection, schedule: Q01DX005 (ip), vehicle: Klucel (hydroxypropylcellulose) (HPC)
[6] = dose: 100.0 mg/kg/injection, schedule: Q01DX005 (ip), vehicle: Klucel (hydroxypropylcellulose) (HPC)
[7] = dose: 200.0 mg/kg/injection, schedule: Q01DX005 (ip), vehicle: Klucel (hydroxypropylcellulose) (HPC)
[8] = dose: 50.0 mg/kg/injection, schedule: Q01DX005 (ip), vehicle: saline
[9] = dose: 50.0 mg/kg/injection, schedule: Q01DX005 (ip), vehicle: saline with Tween-80
[10] = dose: 100.0 mg/kg/injection, schedule: Q01DX005 (ip), vehicle: saline with Tween-80
[11] = dose: 200.0 mg/kg/injection, schedule: Q01DX005 (ip), vehicle: saline with Tween-80
[12] = dose: 100.0 mg/kg/injection, schedule: Q04DX002 (ip), vehicle: saline with Tween-80
[13] = dose: 200.0 mg/kg/injection, schedule: Q04DX002 (ip), vehicle: saline with Tween-80
[14] = dose: 60.0 mg/kg/injection, schedule: Q01DX005 (ip), vehicle: Klucel (hydroxypropylcellulose) (HPC)
[15] = dose: 120.0 mg/kg/injection, schedule: Q01DX005 (ip), vehicle: Klucel (hydroxypropylcellulose) (HPC)
[16] = dose: 240.0 mg/kg/injection, schedule: Q01DX005 (ip), vehicle: Klucel (hydroxypropylcellulose) (HPC)

Measured: T/C

CCCCCCCCC[N+]1(CC)CCCCC1
inactive: dose: 3.12 mg/kg/injection, schedule: Q01DX009 (ip), vehicle: saline 121 % of control | dose: 6.25 mg/kg/injection, schedule: Q01DX009 (ip), vehicle: saline 121 % of control | dose: 12.5 mg/kg/injection, schedule: Q01DX009 (ip), vehicle: saline 86 % of control

c1ccc(-c2ccc(-c3ccccc3)cc2)cc1
inactive: dose: 12.5 mg/kg/injection, schedule: Q01DX009 (ip), vehicle: Klucel (hydroxypropylcellulose) (HPC) 109 % of control | [1] 97 % of control | [2] 98 % of control | [3] 98 % of control

COc1ccc2c(c1)CN(Cc1c(Cl)cccc1Cl)CO2
inactive: [4] 98 % of control | [5] 115 % of control and 97 % of control | [6] 103 % of control and 92 % of control | [7] 89 % of control

S=C(Nc1ccc(Br)c(Cl)c1)SCc1ccc2c(c1)OCO2
inactive: [1] 121 % of control | [2] 107 % of control | dose: 50.0 mg/kg/injection, schedule: Q01DX009 (ip), vehicle: suspension in saline 105 % of control | [3] 123 % of control | dose: 100.0 mg/kg/injection, schedule: Q01DX009 (ip), vehicle: suspension in saline 104 % of control | dose: 200.0 mg/kg/injection, schedule: Q01DX009 (ip), vehicle: suspension in saline 116 % of control

CCOC(=O)c1ccccc1N1C(=O)c2ccccc2NP1(=O)Oc1ccccc1 (configuration not stated)
inactive: [4] 106 % of control | [5] 103 % of control | [6] 106 % of control | [7] 98 % of control

CCNC(=O)C(C)O (configuration not stated)
inactive: [8] 102 % of control | dose: 100.0 mg/kg/injection, schedule: Q01DX005 (ip), vehicle: saline 102 % of control | dose: 200.0 mg/kg/injection, schedule: Q01DX005 (ip), vehicle: saline 98 % of control

CC1N=C(SCC(=O)c2ccc(Cl)cc2)N2C(C)N=C(SCC(=O)c3ccc(Cl)cc3)N12 (configuration not stated)
inactive: dose: 50.0 mg/kg/injection, schedule: Q01DX009 (ip), vehicle: saline 98 % of control | dose: 100.0 mg/kg/injection, schedule: Q01DX009 (ip), vehicle: saline 90 % of control | dose: 200.0 mg/kg/injection, schedule: Q01DX009 (ip), vehicle: saline 90 % of control

COc1ccc(C(=O)N=C(N)n2nc(C)cc2C)cc1
inactive: dose: 100.0 mg/kg/injection, schedule: Q04DX003 (ip), vehicle: Klucel (hydroxypropylcellulose) (HPC) 90 % of control | dose: 200.0 mg/kg/injection, schedule: Q04DX003 (ip), vehicle: Klucel (hydroxypropylcellulose) (HPC) 101 % of control | dose: 400.0 mg/kg/injection, schedule: Q04DX003 (ip), vehicle: Klucel (hydroxypropylcellulose) (HPC) 94 % of control

N=c1c2ncn(C3OC(CO)C(O)C3O)c2ncn1O (configuration not stated)
inactive: dose: 6.25 mg/kg/injection, schedule: Q01DX005 (ip), vehicle: saline 97 % of control | dose: 12.5 mg/kg/injection, schedule: Q01DX005 (ip), vehicle: saline 101 % of control | dose: 25.0 mg/kg/injection, schedule: Q01DX005 (ip), vehicle: saline 101 % of control and 112 % of control | [9] 105 % of control | [8] 112 % of control and 94 % of control | [10] 100 % of control | [11] 108 % of control

Cc1cc(C)cc(NCCC#N)c1
inactive: dose: 100.0 mg/kg/injection, schedule: Q04DX003 (ip), vehicle: other 109 % of control | dose: 200.0 mg/kg/injection, schedule: Q04DX003 (ip), vehicle: other 109 % of control

CC(=O)Nc1ccc(OCCCN2CCOCC2)cc1
inactive: dose: 100.0 mg/kg/injection, schedule: Q04DX002 (ip), vehicle: Klucel (hydroxypropylcellulose) (HPC) 102 % of control | dose: 200.0 mg/kg/injection, schedule: Q04DX002 (ip), vehicle: Klucel (hydroxypropylcellulose) (HPC) 101 % of control | dose: 400.0 mg/kg/injection, schedule: Q04DX002 (ip), vehicle: Klucel (hydroxypropylcellulose) (HPC) 95 % of control

Cc1c2ccnc(C#N)c2c(C)c2c1[nH]c1ccccc12
inactive: dose: 0.78 mg/kg/injection, schedule: Q04DX003 (ip), vehicle: distilled water + Tween-80 91 % of control | dose: 1.56 mg/kg/injection, schedule: Q04DX003 (ip), vehicle: distilled water + Tween-80 97 % of control | dose: 3.13 mg/kg/injection, schedule: Q04DX003 (ip), vehicle: distilled water + Tween-80 97 % of control | dose: 6.25 mg/kg/injection, schedule: Q04DX003 (ip), vehicle: distilled water + Tween-80 87 % of control and 88 % of control

O=C1C=CCCCC1(c1ccccc1)c1ccccc1
inactive: [12] 96 % of control | [13] 96 % of control | dose: 400.0 mg/kg/injection, schedule: Q04DX002 (ip), vehicle: saline with Tween-80 96 % of control

Oc1cc2c(cc1C(c1ccc3c(c1)OCO3)N1CCCC1)OCO2 (configuration not stated)
inactive: [14] 109 % of control | [15] 110 % of control | [16] 112 % of control

O=S(=O)(Cc1cccs1)c1ncc(Br)cn1
inactive: dose: 12.5 mg/kg/injection, schedule: Q01DX005 (ip), vehicle: Klucel (hydroxypropylcellulose) (HPC) 106 % of control | [4] 106 % of control | [5] 111 % of control and 113 % of control | [6] 117 % of control

C=C1C(=O)OC2C1C(OC(=O)/C(=C/CO)CO)CC1(CO1)C1CC=C(C)C21 (configuration not stated)
inactive: dose: 0.94 mg/kg/injection, schedule: Q01DX005 (ip), vehicle: Klucel (hydroxypropylcellulose) (HPC) 111 % of control | dose: 1.87 mg/kg/injection, schedule: Q01DX005 (ip), vehicle: Klucel (hydroxypropylcellulose) (HPC) 107 % of control | dose: 3.75 mg/kg/injection, schedule: Q01DX005 (ip), vehicle: Klucel (hydroxypropylcellulose) (HPC) 108 % of control

CNC(=S)SSC(=S)NCCNC(=S)SSC(=S)NC
inactive: [9] 99 % of control | [10] 106 % of control | [11] 101 % of control

CN(c1c(N)nc(N)nc1N)S(=O)(=O)c1ccc([N+](=O)[O-])cc1
inactive: [14] 108 % of control | [15] 104 % of control | [16] 100 % of control

CN(CCCCn1cnc2ccccc21)N=O
inactive: dose: 20.0 mg/kg/injection, schedule: Q01DX001 (ip), vehicle: Klucel (hydroxypropylcellulose) (HPC) 110 % of control | dose: 40.0 mg/kg/injection, schedule: Q01DX001 (ip), vehicle: Klucel (hydroxypropylcellulose) (HPC) 102 % of control | dose: 80.0 mg/kg/injection, schedule: Q01DX001 (ip), vehicle: Klucel (hydroxypropylcellulose) (HPC) 110 % of control

Nc1[nH]c(=O)ncc1CS(=O)(=O)O
inactive: dose: 50.0 mg/kg/injection, schedule: Q04DX002 (ip), vehicle: saline with Tween-80 97 % of control | [12] 108 % of control | [13] 107 % of control

CCC/C=C/C=C/C(=O)OC1C(C)C2(O)C3C=C(C)C(=O)C3CC(COC(C)=O)=CC2C2C(C)(C)C12OC(=O)C(C)C (configuration not stated)
inactive: dose: 0.12 mg/kg/injection, schedule: Q01DX009 (ip), vehicle: Klucel (hydroxypropylcellulose) (HPC) 111 % of control | dose: 0.25 mg/kg/injection, schedule: Q01DX009 (ip), vehicle: Klucel (hydroxypropylcellulose) (HPC) 103 % of control | dose: 0.5 mg/kg/injection, schedule: Q01DX009 (ip), vehicle: Klucel (hydroxypropylcellulose) (HPC) 107 % of control | dose: 1.0 mg/kg/injection, schedule: Q01DX005 (ip), vehicle: distilled water + Tween-80 109 % of control and 113 % of control | dose: 1.0 mg/kg/injection, schedule: Q01DX009 (ip), vehicle: Klucel (hydroxypropylcellulose) (HPC) 106 % of control | dose: 2.0 mg/kg/injection, schedule: Q01DX005 (ip), vehicle: distilled water + Tween-80 121 % of control and 123 % of control | dose: 2.0 mg/kg/injection, schedule: Q01DX005 (ip), vehicle: saline + alcohol 115 % of control | dose: 4.0 mg/kg/injection, schedule: Q01DX005 (ip), vehicle: saline + alcohol 123 % of control

COc1ccc(N=C2C(=Nc3ccc(OC)cc3)N(c3ccc(OC)cc3)C(=S)N2C)cc1
inactive: dose: 50.0 mg/kg/injection, schedule: Q01DX005 (ip), vehicle: Klucel + Tween-80 106 % of control | dose: 100.0 mg/kg/injection, schedule: Q01DX005 (ip), vehicle: Klucel + Tween-80 93 % of control | dose: 200.0 mg/kg/injection, schedule: Q01DX005 (ip), vehicle: Klucel + Tween-80 106 % of control
